Like-named read-outs stand apart in the source and are kept apart here.

One data set deals with GalG (Bifidobacterium breve, UniProt F9Y1U6). Put plainly: HPTLC of hydrolysis products. It counts as biochemical.
For another data set, the target named is T1, GalR (Bifidobacterium breve UCC2003, UniProt F9Y1U7 1-351).
T1 sequence: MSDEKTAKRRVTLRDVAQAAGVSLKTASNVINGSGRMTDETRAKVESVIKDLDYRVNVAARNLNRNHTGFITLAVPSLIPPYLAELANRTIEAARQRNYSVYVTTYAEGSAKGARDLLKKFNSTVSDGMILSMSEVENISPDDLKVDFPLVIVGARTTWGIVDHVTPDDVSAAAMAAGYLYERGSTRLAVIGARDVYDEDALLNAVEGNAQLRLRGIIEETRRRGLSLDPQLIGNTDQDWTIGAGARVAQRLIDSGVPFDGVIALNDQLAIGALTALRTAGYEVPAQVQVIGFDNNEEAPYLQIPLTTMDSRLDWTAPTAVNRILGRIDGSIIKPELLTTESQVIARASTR
Put plainly: EMSA. In general terms: In EMSA bound probe runs differently from free probe, usually more slowly.

Take `OC[C@H]1O[C@@H](O[C@@H]2[C@H](O)[C@@H](O)C(O)O[C@@H]2CO)[C@H](O)[C@@H](O)[C@H]1O` (stereo partly shown) [galactobiose]: the “HPTLC of hydrolysis products” value at GalG was “The hydrolysis products of galactobiose and lactose following incubation with GalG”.
In the case of `OC[C@H]1O[C@@H](O[C@@H]2[C@H](O)[C@@H](O)[C@H](O[C@@H]3[C@H](O)[C@@H](O)C(O)O[C@@H]3CO)O[C@@H]2CO)[C@H](O)[C@@H](O)[C@H]1O` (stereo partly shown) [galactotriose], the “HPTLC of hydrolysis products” value at GalG (galactotriose generated in situ from potato galactan by GalA or GalAT) is “Upon addition of GalG to the reaction mix the galactotriose is further hydrolysed”.

B1: galCIR2 (dsDNA)
DNA 1: TGACAAATTGGTACACAGGTGTATCATCTTAGGTA
DNA 2: TACCTAAGATGATACACCTGTGTACCAATTTGTCA
Take B1: the binding result with GalR was “binds”.

B2: galCIR1 (dsDNA)
DNA 1: TTAGGTATTGGTACACGGGTGTACCAAAGAAAACA
DNA 2: TGTTTTCTTTGGTACACCCGTGTACCAATACCTAA
Turning to B2, the binding result in the data set with GalR is recorded as “binds”.

Source of the values: publication PMC3818998 (Microbial Biotechnology, 2011).
